Laboratory results taken from ChEMBL document CHEMBL3797082, “A multicomponent pharmacophore fragment-decoration approach to identify selective LRRK2-targeting probes” (Medchemcomm, 2016).
Activity calls are given as the source filed them. No cut-off for these calls is given here.

Columns and labels:
[1] = biological target: Leucine-rich repeat serine/threonine-protein kinase 2 (Homo sapiens) (UniProt Q5S007); experiment: Inhibition of human recombinant N-terminal GST-tagged LRRK2 (968 residues) expressed in baculovirus infected sf9 cells using LRRKtide as substrate at 100 uM incubated for 10 mins by scintillation counting method in presence of [gamma33P]ATP
[2] = tested on: Leucine-rich repeat serine/threonine-protein kinase 2 (Homo sapiens), Q5S007 [G2019S]; experiment: Inhibition of human recombinant GST-tagged LRRK2 G2019S mutant (970 residues) expressed in baculovirus expression system using LRRKtide as substrate at 100 uM incubated for 10 mins by scintillation counting method in presence of [gamma33P]ATP
[3] = biological target: Tyrosine-protein kinase ABL1 (Homo sapiens) (UniProt P00519); experiment: Inhibition of human recombinant N-terminal His-tagged ABL (27 residues) expressed in baculovirus infected sf9 cells using KKGEAIYAAPFA-NH2 as substrate at 100 uM incubated for 10 mins by scintillation counting method relative to control
[4] = biological target: Receptor-type tyrosine-protein kinase FLT3 (Homo sapiens) (UniProt P36888); experiment: Inhibition of human recombinant N-terminal GST-His6-tagged FLT3 (R571-S993 residues) expressed in baculovirus infected sf9 cells using KVEKIGEGTYGVVYK as substrate at 100 uM incubated for 10 mins by scintillation counting method relative to control
[5] = biological target: CDK2/Cyclin A2 (Homo sapiens) (UniProt P24941+P20248); experiment: Inhibition of full length human recombinant N-terminal GST-tagged CDK2 (M1-L298 residues)/Cyclin A2 (M1-L432 residues) expressed in baculovirus infected sf9 cells using histone H1 as substrate at 100 uM incubated for 10 mins by scintillation counting method relative to control
[6] = biological target: CDK9/cyclin T1 (Homo sapiens) (UniProt O60563+P50750); experiment: Inhibition of full length human recombinant N-terminal GST-His6-tagged CDK9 (M1-F372 residues)/Cyclin T1 (M1-K726 residues) expressed in baculovirus infected sf9 cells using CDKtide as substrate at 100 uM incubated for 10 mins by scintillation counting method relative to control
[7] = biological target: CDK9/Cyclin K (Homo sapiens) (UniProt P50750+O75909); experiment: Inhibition of full length human recombinant N-terminal GST-tagged CDK9/Cyclin K expressed in baculovirus infected sf9 cells using CDKtide as substrate at 100 uM incubated for 10 mins by scintillation counting method relative to control
[8] = biological target: Cyclin-dependent kinase 4/cyclin D1 (Homo sapiens) (UniProt P11802+P24385); experiment: Inhibition of full length human recombinant N-terminal GST-tagged CDK4/Cyclin D1 expressed in baculovirus infected sf9 cells using RB-CTF as substrate at 100 uM incubated for 10 mins by scintillation counting method relative to control
[9] = biological target: Phosphatidylinositol 4-kinase beta (Homo sapiens) (UniProt Q9UBF8); experiment: Inhibition of full length human recombinant N-terminal GST-His-tagged PI4KB expressed in sf9 cells using phosphatidyl inositol:phosphatidyl serine (1:3) substrate at 100 uM by ADP-Glo kinase assay relative to control
[10] = biological target: Serine/threonine-protein kinase pim-1 (Homo sapiens) (UniProt P11309); experiment: Inhibition of full length human recombinant N-terminal GST-tagged PIM1 expressed in Escherichia coli using S6 Kinase/Rsk2 peptide2 as substrate at 100 uM incubated for 10 mins by scintillation counting method relative to control
[11] = biological target: T1, Leucine-rich repeat serine/threonine-protein kinase 2 (Homo sapiens, UniProt Q5S007, G2019S); experiment: Competitive inhibition of human recombinant GST-tagged LRRK2 G2019S mutant (970 residues) expressed in baculovirus expression system assessed as enzyme-inhibitor complex by Michaelis-Menten kinetics in presence of varying level of ATP
[12] = biological target: Leucine-rich repeat serine/threonine-protein kinase 2 (Homo sapiens) (UniProt Q5S007); experiment: Inhibition of human recombinant N-terminal GST-tagged LRRK2 (968 residues) expressed in baculovirus infected sf9 cells using LRRKtide as substrate incubated for 10 mins by scintillation counting method in presence of [gamma33P]ATP
[13] = tested on: Leucine-rich repeat serine/threonine-protein kinase 2 (Homo sapiens), Q5S007 [G2019S]; experiment: Inhibition of human recombinant GST-tagged LRRK2 G2019S mutant (970 residues) expressed in baculovirus expression system using LRRKtide as substrate incubated for 10 mins by scintillation counting method in presence of [gamma33P]ATP
[14] = Selectivity ratio of ID50 for human recombinant N-terminal GST-tagged LRRK2 (968 residues) expressed in baculovirus infected sf9 cells to ID50 for human recombinant GST-tagged LRRK2 G2019S mutant (970 residues) expressed in baculovirus expression system
[15] = biological target: Proto-oncogene tyrosine-protein kinase Src (Homo sapiens) (UniProt P12931); experiment: Inhibition of full length human recombinant N-terminal His6-tagged SRC expressed in baculovirus infected sf21 cells using KVEKIGEGTYGVVYK as substrate at 100 uM incubated for 10 mins by scintillation counting method relative to control
[16] = biological target: Glycogen synthase kinase-3 beta (Homo sapiens) (UniProt P49841); experiment: Inhibition of full length human recombinant N-terminal GST-tagged GSK3beta expressed in baculovirus infected sf9 cells using GSK3 substrate at 100 uM incubated for 10 mins by scintillation counting method relative to control
[17] = biological target: Tyrosine-protein kinase HCK (Homo sapiens) (UniProt P08631); experiment: Inhibition of full length human recombinant N-terminal GST-His6-tagged HCK (M1 to P505 residues) expressed in baculovirus infected sf9 cells using KVEKIGEGTYGVVYK as substrate at 100 uM incubated for 10 mins by scintillation counting method relative to control
[18] = biological target: Focal adhesion kinase 1 (Homo sapiens) (UniProt Q05397); experiment: Inhibition of human recombinant FAK expressed in baculovirus infected sf9 cells using KVEKIGEGTYGVVYK as substrate at 100 uM incubated for 10 mins by scintillation counting method relative to control
[19] = biological target: CDK6/cyclin D1 (Homo sapiens) (UniProt P24385+Q00534); experiment: Inhibition of full length human recombinant N-terminal His-tagged CDK6/N-terminal GST-tagged Cyclin D1 expressed in baculovirus infected sf9 cells using RB-CTF as substrate at 100 uM incubated for 10 mins by scintillation counting method relative to control
[20] = biological target: Dual specificity tyrosine-phosphorylation-regulated kinase 1A (Rattus norvegicus) (UniProt Q63470); experiment: Inhibition of recombinant rat N-terminal GST-tagged DYRK1A (1 to 499 residues) expressed in Escherichia coli using KKISGRLSPIMTEQ-NH2 as substrate at 100 uM incubated for 10 mins by scintillation counting method relative to control
[21] = biological target: T1, Leucine-rich repeat serine/threonine-protein kinase 2; experiment: Mixed type inhibition of human recombinant GST-tagged LRRK2 G2019S mutant (970 residues) expressed in baculovirus expression system assessed as enzyme-inhibitor complex by Michaelis-Menten kinetics in presence of varying level of ATP
[22] = biological target: T1, Leucine-rich repeat serine/threonine-protein kinase 2; experiment: Mixed type inhibition of human recombinant GST-tagged LRRK2 G2019S mutant (970 residues) expressed in baculovirus expression system assessed as enzyme-substrate-inhibitor complex by Michaelis-Menten kinetics in presence of varying level of ATP
[23] = tested on: Leucine-rich repeat serine/threonine-protein kinase 2 (Homo sapiens), Q5S007 [G2019S]; experiment: Ratio of enzyme-substrate-inhibitor complex Ki to enzyme-inhibitor complex Ki for human recombinant GST-tagged LRRK2 G2019S mutant (970 residues) expressed in baculovirus expression system
[24] = biological target: Leucine-rich repeat serine/threonine-protein kinase 2 (Homo sapiens) (UniProt Q5S007); experiment: Inhibition of human recombinant N-terminal GST-tagged LRRK2 (968 residues) expressed in baculovirus infected sf9 cells using LRRKtide as substrate at 50 uM incubated for 10 mins by scintillation counting method in presence of [gamma33P]ATP
[25] = tested on: Leucine-rich repeat serine/threonine-protein kinase 2 (Homo sapiens), Q5S007 [G2019S]; experiment: Inhibition of human recombinant GST-tagged LRRK2 G2019S mutant (970 residues) expressed in baculovirus expression system using LRRKtide as substrate at 50 uM incubated for 10 mins by scintillation counting method in presence of [gamma33P]ATP

Sequence of Phosphatidylinositol 4-kinase beta (Homo sapiens) (Q9UBF8 2-816 limits assumed): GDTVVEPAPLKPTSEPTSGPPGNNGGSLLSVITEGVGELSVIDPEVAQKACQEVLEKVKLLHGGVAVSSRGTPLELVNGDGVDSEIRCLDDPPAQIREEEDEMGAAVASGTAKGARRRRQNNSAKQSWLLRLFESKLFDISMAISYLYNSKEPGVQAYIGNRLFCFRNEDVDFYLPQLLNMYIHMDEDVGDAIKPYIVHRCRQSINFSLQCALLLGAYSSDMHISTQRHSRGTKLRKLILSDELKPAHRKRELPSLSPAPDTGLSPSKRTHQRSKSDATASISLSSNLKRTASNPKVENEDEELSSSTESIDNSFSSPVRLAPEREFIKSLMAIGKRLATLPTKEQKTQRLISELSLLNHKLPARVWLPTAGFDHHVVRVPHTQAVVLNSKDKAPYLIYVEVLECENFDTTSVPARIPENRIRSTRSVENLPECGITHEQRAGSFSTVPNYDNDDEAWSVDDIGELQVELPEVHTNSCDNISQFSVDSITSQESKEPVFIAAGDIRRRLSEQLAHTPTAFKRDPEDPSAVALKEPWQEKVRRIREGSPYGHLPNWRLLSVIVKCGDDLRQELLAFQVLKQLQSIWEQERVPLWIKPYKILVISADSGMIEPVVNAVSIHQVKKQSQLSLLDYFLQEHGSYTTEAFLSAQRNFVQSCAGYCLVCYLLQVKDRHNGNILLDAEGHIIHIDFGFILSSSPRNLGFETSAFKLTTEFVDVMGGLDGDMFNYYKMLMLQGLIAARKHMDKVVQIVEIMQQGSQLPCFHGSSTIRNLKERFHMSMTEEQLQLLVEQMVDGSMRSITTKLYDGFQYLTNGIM
Sequence of Proto-oncogene tyrosine-protein kinase Src (Homo sapiens) (P12931 2-536 limits assumed): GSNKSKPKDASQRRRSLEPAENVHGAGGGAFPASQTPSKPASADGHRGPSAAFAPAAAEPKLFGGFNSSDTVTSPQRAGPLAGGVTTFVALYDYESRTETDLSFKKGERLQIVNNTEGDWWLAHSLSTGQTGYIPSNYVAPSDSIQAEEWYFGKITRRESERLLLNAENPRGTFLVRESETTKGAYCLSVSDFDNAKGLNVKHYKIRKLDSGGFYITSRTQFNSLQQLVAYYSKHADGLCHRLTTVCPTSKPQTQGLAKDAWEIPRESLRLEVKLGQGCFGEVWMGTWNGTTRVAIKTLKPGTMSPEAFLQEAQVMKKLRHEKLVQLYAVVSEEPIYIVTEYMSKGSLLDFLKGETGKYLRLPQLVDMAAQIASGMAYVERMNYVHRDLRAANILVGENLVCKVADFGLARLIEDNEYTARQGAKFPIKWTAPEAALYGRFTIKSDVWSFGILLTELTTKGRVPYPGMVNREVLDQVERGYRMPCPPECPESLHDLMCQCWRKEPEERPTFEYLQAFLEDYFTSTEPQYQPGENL
Sequence of Focal adhesion kinase 1 (Homo sapiens) (Q05397 2-1052 limits assumed): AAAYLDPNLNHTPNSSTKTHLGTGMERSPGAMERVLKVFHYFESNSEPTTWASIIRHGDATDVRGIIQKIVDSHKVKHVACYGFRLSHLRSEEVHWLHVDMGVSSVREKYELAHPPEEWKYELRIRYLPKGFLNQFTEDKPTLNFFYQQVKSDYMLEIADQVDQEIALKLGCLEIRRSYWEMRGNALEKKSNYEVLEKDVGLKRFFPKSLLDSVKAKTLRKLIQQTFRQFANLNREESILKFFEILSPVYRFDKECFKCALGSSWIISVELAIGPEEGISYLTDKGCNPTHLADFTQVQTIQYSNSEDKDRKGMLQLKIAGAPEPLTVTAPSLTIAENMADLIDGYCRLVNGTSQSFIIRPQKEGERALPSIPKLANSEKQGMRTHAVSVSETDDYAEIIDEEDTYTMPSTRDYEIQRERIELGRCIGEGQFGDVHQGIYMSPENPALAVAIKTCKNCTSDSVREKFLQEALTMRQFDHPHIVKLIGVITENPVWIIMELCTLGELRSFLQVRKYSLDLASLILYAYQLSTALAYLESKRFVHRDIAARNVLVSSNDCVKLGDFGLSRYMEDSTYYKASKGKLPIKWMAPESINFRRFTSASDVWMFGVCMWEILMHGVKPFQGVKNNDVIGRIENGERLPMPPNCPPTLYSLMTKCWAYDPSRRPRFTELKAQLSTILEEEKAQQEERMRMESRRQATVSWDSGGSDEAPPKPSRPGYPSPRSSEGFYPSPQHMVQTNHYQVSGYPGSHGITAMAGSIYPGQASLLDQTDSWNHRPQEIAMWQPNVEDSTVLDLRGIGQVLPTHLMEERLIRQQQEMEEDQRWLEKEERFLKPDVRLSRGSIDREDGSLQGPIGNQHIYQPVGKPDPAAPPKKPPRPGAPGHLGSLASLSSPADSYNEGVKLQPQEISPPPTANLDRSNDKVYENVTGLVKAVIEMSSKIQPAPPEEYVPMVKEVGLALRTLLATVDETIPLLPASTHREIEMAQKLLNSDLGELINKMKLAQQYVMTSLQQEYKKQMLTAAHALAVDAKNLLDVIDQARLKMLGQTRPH
Sequence of Glycogen synthase kinase-3 beta (Homo sapiens) (P49841 whole entry, looked up, the tested form may be a part): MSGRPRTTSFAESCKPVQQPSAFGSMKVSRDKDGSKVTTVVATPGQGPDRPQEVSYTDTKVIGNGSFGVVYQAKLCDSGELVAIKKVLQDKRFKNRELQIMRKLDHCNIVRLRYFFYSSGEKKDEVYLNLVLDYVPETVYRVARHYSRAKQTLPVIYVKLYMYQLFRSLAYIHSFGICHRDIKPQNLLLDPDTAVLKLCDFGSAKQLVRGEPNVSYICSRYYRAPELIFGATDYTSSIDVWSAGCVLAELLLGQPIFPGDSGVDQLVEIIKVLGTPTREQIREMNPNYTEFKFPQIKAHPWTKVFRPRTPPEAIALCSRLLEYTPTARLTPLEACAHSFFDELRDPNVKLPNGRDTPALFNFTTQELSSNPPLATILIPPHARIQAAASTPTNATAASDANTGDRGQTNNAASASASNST
Sequence of Serine/threonine-protein kinase pim-1 (Homo sapiens) (P11309 whole entry, looked up): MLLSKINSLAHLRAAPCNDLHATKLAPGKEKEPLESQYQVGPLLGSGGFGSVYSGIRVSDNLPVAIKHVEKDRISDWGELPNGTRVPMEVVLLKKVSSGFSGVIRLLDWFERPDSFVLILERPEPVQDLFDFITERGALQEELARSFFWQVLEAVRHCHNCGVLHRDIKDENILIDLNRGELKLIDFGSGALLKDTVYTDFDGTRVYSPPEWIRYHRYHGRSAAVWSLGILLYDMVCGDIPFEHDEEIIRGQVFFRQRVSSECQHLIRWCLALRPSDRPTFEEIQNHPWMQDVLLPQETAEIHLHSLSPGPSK
Sequence of Tyrosine-protein kinase HCK (Homo sapiens) (P08631 2-526 limits assumed): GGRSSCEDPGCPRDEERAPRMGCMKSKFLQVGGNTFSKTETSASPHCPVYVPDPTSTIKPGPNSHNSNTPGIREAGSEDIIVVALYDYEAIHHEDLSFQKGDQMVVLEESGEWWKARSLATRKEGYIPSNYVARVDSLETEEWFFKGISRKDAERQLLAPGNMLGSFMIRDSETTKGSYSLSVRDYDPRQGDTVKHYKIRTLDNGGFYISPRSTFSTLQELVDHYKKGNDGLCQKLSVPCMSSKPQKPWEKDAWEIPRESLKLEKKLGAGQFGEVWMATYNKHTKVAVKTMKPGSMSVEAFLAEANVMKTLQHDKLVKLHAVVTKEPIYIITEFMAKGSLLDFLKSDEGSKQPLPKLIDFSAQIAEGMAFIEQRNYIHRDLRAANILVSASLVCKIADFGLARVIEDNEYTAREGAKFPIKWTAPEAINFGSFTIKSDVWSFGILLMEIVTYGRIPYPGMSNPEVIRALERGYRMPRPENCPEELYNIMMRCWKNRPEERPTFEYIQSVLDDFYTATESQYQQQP
Sequence of Receptor-type tyrosine-protein kinase FLT3 (Homo sapiens) (P36888 whole entry, the tested form may be a part): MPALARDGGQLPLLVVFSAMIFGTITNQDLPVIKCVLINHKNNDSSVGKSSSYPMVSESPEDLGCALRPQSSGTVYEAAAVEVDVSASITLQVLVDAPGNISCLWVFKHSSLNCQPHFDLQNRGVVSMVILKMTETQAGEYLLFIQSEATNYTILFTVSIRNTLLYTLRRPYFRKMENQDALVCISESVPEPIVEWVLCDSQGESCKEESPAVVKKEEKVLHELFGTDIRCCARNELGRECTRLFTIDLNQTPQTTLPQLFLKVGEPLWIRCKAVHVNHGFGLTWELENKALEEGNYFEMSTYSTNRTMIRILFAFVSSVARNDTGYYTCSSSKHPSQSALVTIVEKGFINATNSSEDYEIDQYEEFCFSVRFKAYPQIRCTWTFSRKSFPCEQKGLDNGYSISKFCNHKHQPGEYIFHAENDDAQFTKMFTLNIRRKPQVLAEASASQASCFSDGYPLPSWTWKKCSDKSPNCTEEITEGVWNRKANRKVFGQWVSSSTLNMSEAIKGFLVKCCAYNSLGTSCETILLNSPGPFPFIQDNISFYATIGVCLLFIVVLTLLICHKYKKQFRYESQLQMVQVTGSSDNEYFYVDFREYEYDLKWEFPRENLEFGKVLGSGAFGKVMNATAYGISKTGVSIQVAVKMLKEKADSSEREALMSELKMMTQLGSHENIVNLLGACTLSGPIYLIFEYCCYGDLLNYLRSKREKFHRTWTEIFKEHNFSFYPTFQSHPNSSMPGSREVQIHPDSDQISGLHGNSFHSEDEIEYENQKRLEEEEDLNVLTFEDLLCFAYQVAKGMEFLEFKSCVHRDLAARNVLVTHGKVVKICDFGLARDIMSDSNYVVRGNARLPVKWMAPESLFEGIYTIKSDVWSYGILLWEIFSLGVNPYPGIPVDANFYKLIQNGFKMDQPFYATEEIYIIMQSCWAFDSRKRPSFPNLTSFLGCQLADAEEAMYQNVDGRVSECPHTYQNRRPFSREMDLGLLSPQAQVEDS

| Compound | inhibition [1] | inhibition [2] | inhibition [3] | inhibition [4] | inhibition [5] | inhibition [6] | inhibition [7] | inhibition [8] | inhibition [9] | inhibition [10] | ID50 [12] | ID50 [13] | Selectivity ratio [14] | inhibition [15] | inhibition [16] | inhibition [17] | inhibition [18] | inhibition [19] | inhibition [20] | Ki [21] | other results |
| --- | --- | --- | --- | --- | --- | --- | --- | --- | --- | --- | --- | --- | --- | --- | --- | --- | --- | --- | --- | --- | --- |
| COc1ccc(/C=N/Nc2nc(C)cc(C)c2C#N)cc1 | Active | Active |  |  |  |  |  |  |  |  |  |  |  |  |  |  |  |  |  |  |  |
| Cc1cc(N/N=C/c2ccc(OC(=O)c3ccc(N4CCN(C)CC4)cc3)cc2)nc2ccccc12 | inactive | inactive |  |  |  |  |  |  |  |  |  |  |  |  |  |  |  |  |  |  |  |
| COc1ccc(-c2nnc3c(NCCN4CCOCC4)cccn23)cc1OC | Active | Active | 19% | 0% | 22% | 24% | 38% | 10% | 3% | 29% | 32 µM | 9.1 µM | 3.5 | 40% | 14% | 0% | 8% | 18% | 26% |  | Ki [11]: 5.61 µM |
| Cc1cc(N/N=C/c2ccc(O)cc2)nc2ccccc12 |  |  | 24% | 62% | 12% | 0% | 24% | 16% | 31% | 43% | 2.7 µM | 1.3 µM | 2.4 | 21% | 0% | 0% | 13% | 40% | 22% | 0.55 µM | Ki [22]: 2.59 µM; Ratio [23]: 5; inhibition [24]: Active; inhibition [25]: Active |
| COc1ccc(/C=N/Nc2ccccn2)cc1 | Active | Active |  |  |  |  |  |  |  |  |  |  |  |  |  |  |  |  |  |  |  |
| COc1ccc(/C=N/Nc2nc3c(c(-c4ccccc4)c2C#N)CCCC3)cc1 | Active | Active |  |  |  |  |  |  |  |  |  |  |  |  |  |  |  |  |  |  |  |
| COc1ccc(/C=N/Nc2ncccc2Cl)cc1OC | Active | Active |  |  |  |  |  |  |  |  |  |  |  |  |  |  |  |  |  |  |  |
| COc1ccc(/C=N/Nc2cc(C)c3ccccc3n2)cc1 |  |  | 43% | 50% | 9% | 0% | 53% | 9% | 32% | 20% | 3 µM | 0.9 µM | 4 | 31% | 0% | 0% | 11% | 42% | 0% | 0.74 µM | Ki [22]: 1.8 µM; inhibition [24]: Active; inhibition [25]: Active |
| C/C(=N\Nc1ccc2ccccc2n1)c1ccccc1O |  |  | 6% | 3% | 3% | 1% | 2% | 7% | 0% | 3% | 32.6 µM | 4.8 µM | 7.5 | 5% | 1% | 0% | 1% | 1% | 9% | 3.45 µM | Ki [22]: 18.4 µM; Ratio [23]: 5; inhibition [24]: Active; inhibition [25]: Active |
